# Assays:
# NET [1] = molecular target: T1, NET (Homo sapiens, UniProt P23975); experiment: In vitro autoradiography with [11C]Me@HAPTHI, human brain slices, competition; format: binding
# T1 construct: The human postmortem tissue (7–9 h postmortem time, no history of neurological diseases) was obtained from the Neurobiobank; from tissue; host or cells: post-mortem human brain (cortex, thalamus, hippocampus, cerebellum, hypothalamus, nucleus caudatus), 10 µm cryo-slices
# Protocol: Human brain tissue (cortex, thalamus, hippocampus, cerebellum and hypothalamus) was obtained deeply frozen from the Neurobiobank of the Medical University Vienna and was stored at −80 °C. Before cutting, tissue blocks were thawed slowly within 12 h to −20 °C. The organs were cut at −20 °C in a micro-cryotome into 10-μm-thick slices and thaw mounted onto object slides. Slices were again stored at −80 °C until the beginning of the experiment.
# (§1) In vitro autoradiography was performed with slight modifications according to previously published protocols. Non-specific binding was determined by co-incubation with excess Nisoxetine (10 μM). […] After 1 h at room temperature, incubation was stopped and slices were processed on phosphor imaging films.
# (§2) All data was exported to Microsoft Excel for statistical analysis, and the percentage of total specific binding was calculated.
# Human brain tissue (cortex, thalamus, hippocampus, cerebellum, and hypothalamus) was obtained deeply frozen from the Neuro-Biobank of the Medical University Vienna. Upon cutting, all tissue was stored at -80 °C. Before cutting, tissue blocks were thawed slowly within 12 h to -20 °C. The organs were cut at -20°C in a micro-cryotome into 10 µm thick slices and thaw mounted onto object slides. Until the beginning of the experiment, slices were stored at -80°C.
# (§3) A buffer for pre-incubation (50 mM TRIS HCl in aqua dest., pH 7.4) and a buffer for the experiment (50 mM TRIS HCl, pH 7.4, 300 mM NaCl, 5 mM KCl, 0.1%w/v ascorbic acid in aqua dest.) were prepared the day before the experiment and stored at 4 °C.
# (§4) Tissue sections were allowed to thaw to RT upon thorough vanishing of condense water residues (5-10min). Subsequently, the slices were pre-incubated with the respective buffer at RT for 30 min in a Coplin jar. Slices were taken out of the jar and the buffer residues were removed.
# (§5) Non-specific binding was determined by co-incubation with excess Nisoxetine (10 µM). […] To the naïve incubation solution (baseline), a vehicle containing acetonitrile was added in the same concentration as used for the dissolution of the competitors (i.e. 0.3% acetonitrile in the final incubation solution).
# (§6) After 1 h the incubation was stopped and the slices were washed twice for 5 min in a jar with ice-cold incubation buffer. Finally, the tissue slides were washed with ice-cold water to remove all residual salts and dried under a smooth air stream. Subsequently, the dry tissue slices were placed on Phosphor-Imager films in a lead shielded cassette for an exposure time of 12 h. Following the analysis of the films with a Cyclone Phosphor Imager, regions of interest (ROI) were analyzed using OptiQuant® software. The signal obtained (digital light units/mm2=DLU/mm^2) was proportional to the radioactivity on the film. Using a calibration curve for each experiment, DLUs were converted into kBq/mm^2. Furthermore, for calculation of NET-density, kBq were converted into fmol by taking into account the specific activity of the radiotracer preparations. All data was exported to Microsoft Excel for statistical analysis and the percentage of total specific binding was calculated.
# NET [2] = molecular target: T2, NET (Rattus norvegicus, UniProt Q63380); experiment: In vitro autoradiography with [11C]Me@HAPTHI, rat heart slices, competition; format: binding; conditions: for % BL-competitor: [11C]Me@HAPTHI binding, BL = baseline; for fmol (calculated relative concentration of transporter protein): limit of detection 0.01 fmol
# T2 construct: Wild-type male rats were deeply anesthesized by isoflurane and sacrificed by decapitation; The organs of interest (i.e. brain, heart and testis) were removed; from tissue; host or cells: rat heart, 10 µm cryo-slices
# Protocol: as §1, §2, §3, §4, §5, §6
# NET [3] = molecular target: T1, NET; experiment: In vitro autoradiography with [11C]Me@HAPTHI, human brain slices, competition; format: binding; conditions: human nucleus caudatus
# [4] = HPLC-based logD analysis (ODP-50 column); format: physicochemical; conditions: for chromatographic logD: HPLC on polymeric ODP-50 column, methanol/phosphate buffer, pH 7.4, HPLC method
# Protocol: LogD values were assessed using a HPLC-based protocol according to Donovan and Pescatore. All compounds (as cold reference standards) were injected together with two known compounds—with known logD and k′ values—according to a standard protocol. A polymeric ODP-50 column was used; a linear gradient from 10 % MeOH 90 % 25 mM phosphate buffer (pH 7.4) to 100 % methanol within 9.4 min at a flow-rate of 1.5 mL/min was applied. Internal standards were triphenylene and toluene; detection was performed at 260 and 285 nm.
# [5] = molecular target: T3, hNET expressing membranes (Homo sapiens, UniProt P23975); experiment: Harvesting experiments with [11C]Me@HAPTHI on hNET expressing membranes; format: binding; conditions: cold competitor 1-1000 nM, n ≥ 3 triplicates
# T3 construct: purchased Perkin Elmer RBHNETM400AU
# human DAT membranes = molecular target: T4, human DAT membranes (Homo sapiens, UniProt Q01959); experiment: DAT-expressing membrane binding (selectivity); conditions: n ≥ 5 triplicates, read-out: affinity for DAT
# T4 construct: purchased Perkin Elmer RBHDATM400UA
# Protocol: (§7) IC50 and Ki values were obtained in analogy to NET experiments. Ratios DAT/NET and SERT/NET were determined.
# as §7
# human SERT membranes = molecular target: T5, human SERT membranes (Homo sapiens, UniProt P31645); experiment: SERT-expressing membrane binding (selectivity); conditions: n ≥ 5 triplicates, read-out: affinity towards SERT
# T5 construct: purchased Perkin Elmer RBHSTM400UA
# Protocol: as §7, §7
# human NET membranes = molecular target: T6, human NET membranes (Homo sapiens, UniProt P23975); experiment: NET-expressing membrane competitive binding ([3H]nisoxetine); conditions: n ≥ 9 triplicates; cold reference compounds; read-out: Kd (affinity, human NET membranes)
# T6 construct: purchased Perkin Elmer RBHNETM400AU
# Protocol: The affinity of new radiolabelled ligand was determined in a NET-expressing membrane binding protocol [26, 27].
# Data from the competition plots (as arithmetic means of values derived from three different assays, each in triplicate for each compound) were analyzed and subsequently IC50 and Ki values were calculated using GraphPad Prism® software (San Diego, USA).
# The affinity of new radiolabeled ligand was determined in a NET-expressing membrane binding protocol [3-5]. […] After incubation time, binding was quenched with ice cold buffer, and membrane bound radioactivity was recovered by rapid vacuum filtration through GF/C glass fiber filters (Whatman® Inc., Clifton, USA) presoaked in assay buffer containing 0.3% polyethylene imine (PEI). […] After addition of a β-scintillation cocktail (2 mL Ultima Gold^TM, biodegradeable, Perkin Elmer), the tubes were shaken for 20 min and then counted. Data from the competition plots (as arithmetic means of values derived from three different assays, each in triplicate for each compound) were analyzed and subsequently IC50 and Ki values were calculated using GraphPad Prism® software (San Diego, USA).
# [6] = Plasma free fraction by ultrafiltration; format: in vitro ADME, human; conditions: binding to filter matrix of Centrifree vials, phosphate buffer pH 7.4
# Protocol: For the determination of free fraction in human pooled plasma, an ultrafiltration protocol according to previously published methods was used. […] For a detailed method, see Additional file 1.
# After incubation for 20 min at room temperature, the Centrifree vials were centrifuged for 50 minutes at 1800g. Subsequently, an aliquot of 50 µL of the ultrafiltrate was taken and measured in the γ-counter. The plasma free fraction was subsequently calculated as the ratio of the ultrafiltrate activity to the total plasma activity. […] The final free fraction value was corrected for this unspecific filter binding.
# [7] = human cortex, competitor 100 nM
# [8] = human hippocampus, competitor 100 nM
# [9] = human hippocampus, competitor 1 μM
# [10] = human hypothalamus, competitor 100 nM
# [11] = human hypothalamus, competitor 1 μM
# [12] = human thalamus, competitor 100 nM
# [13] = human thalamus, competitor 1 μM
# T1 sequence (P23975 whole entry): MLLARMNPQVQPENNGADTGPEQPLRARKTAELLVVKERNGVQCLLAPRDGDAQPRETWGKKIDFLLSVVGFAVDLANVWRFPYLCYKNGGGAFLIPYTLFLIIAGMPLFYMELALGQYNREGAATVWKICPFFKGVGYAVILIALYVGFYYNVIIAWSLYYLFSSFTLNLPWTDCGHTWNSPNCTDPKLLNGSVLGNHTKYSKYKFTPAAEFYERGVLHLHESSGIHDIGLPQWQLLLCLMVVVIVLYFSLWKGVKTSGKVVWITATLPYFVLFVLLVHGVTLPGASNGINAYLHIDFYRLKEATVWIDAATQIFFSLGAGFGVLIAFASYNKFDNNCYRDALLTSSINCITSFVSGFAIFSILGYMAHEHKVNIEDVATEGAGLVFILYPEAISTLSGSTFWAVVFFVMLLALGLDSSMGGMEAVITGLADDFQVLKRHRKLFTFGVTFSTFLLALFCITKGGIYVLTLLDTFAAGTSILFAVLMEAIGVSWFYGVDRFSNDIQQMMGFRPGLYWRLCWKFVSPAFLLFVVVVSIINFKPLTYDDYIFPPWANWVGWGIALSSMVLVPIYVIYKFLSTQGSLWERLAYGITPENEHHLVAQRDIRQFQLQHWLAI
# T2 sequence (Q63380 1-617): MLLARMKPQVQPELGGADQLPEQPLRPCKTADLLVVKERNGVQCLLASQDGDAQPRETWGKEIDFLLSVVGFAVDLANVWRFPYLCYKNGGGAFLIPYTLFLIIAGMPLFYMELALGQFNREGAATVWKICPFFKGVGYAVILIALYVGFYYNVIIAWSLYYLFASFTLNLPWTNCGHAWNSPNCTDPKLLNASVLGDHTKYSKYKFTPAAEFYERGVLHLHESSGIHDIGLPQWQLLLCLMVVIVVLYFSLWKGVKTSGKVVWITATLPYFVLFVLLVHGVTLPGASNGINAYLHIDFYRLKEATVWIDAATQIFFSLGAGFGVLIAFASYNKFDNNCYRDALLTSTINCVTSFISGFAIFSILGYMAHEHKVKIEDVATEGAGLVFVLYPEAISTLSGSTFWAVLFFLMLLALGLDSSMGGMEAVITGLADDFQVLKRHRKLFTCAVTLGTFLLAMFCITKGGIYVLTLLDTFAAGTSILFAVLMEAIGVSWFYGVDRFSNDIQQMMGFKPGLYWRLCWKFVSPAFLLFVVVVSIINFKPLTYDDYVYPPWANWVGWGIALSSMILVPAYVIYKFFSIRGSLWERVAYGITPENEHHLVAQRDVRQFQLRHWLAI
# T3 sequence (P23975 whole entry): as the sequence (P23975 whole entry) above
# T6 sequence (P23975 whole entry): as above
# T4 sequence (Q01959 whole entry): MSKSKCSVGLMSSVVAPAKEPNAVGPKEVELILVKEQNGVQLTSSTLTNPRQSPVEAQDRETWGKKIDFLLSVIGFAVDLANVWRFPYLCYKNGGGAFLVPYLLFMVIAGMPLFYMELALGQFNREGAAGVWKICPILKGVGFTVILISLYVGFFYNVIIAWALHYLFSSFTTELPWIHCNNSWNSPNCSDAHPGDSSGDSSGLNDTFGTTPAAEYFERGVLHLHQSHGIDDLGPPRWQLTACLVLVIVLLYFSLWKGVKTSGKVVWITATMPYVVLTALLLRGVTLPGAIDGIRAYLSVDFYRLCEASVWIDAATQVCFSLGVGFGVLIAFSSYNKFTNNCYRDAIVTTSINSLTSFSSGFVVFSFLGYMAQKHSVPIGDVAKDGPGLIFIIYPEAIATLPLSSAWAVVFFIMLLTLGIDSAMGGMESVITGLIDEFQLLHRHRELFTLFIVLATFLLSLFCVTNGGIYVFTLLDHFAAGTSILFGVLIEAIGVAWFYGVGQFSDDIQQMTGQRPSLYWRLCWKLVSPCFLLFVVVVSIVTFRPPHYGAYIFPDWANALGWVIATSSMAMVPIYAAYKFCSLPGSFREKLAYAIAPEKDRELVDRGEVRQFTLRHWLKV
# T5 sequence (P31645 whole entry): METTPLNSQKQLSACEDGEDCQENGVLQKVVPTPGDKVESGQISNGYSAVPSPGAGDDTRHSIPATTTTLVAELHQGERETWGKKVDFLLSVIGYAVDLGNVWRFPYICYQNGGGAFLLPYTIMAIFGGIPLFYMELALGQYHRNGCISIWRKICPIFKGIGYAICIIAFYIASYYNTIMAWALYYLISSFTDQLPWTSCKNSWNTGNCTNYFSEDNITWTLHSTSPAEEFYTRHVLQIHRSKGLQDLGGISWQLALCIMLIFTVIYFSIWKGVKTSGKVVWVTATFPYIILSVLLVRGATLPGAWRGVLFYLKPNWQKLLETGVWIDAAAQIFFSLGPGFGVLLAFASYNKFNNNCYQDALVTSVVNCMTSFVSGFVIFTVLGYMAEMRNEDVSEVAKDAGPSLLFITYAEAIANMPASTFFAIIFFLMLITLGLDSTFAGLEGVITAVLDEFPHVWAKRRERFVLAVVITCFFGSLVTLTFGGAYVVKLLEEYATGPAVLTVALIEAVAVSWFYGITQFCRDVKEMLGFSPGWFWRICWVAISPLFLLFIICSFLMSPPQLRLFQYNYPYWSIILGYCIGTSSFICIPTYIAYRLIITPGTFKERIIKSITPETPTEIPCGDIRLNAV
smiles,measurement,setting,value
[2H]C([2H])(F)Oc1ccccc1OC(c1ccccc1)C1CNCCO1 (centres unmarked) [FMeNER-D2],% BL-competitor,"NET [1]; human cerebellum, competitor 100 nM",103.9 ± 12.2%
same,% BL-competitor,"NET [1]; human cerebellum, competitor 1 μM",108.2 ± 17.3%
same,% BL-competitor,NET [1]; [7],86.3 ± 11.2 %
same,fmol (calculated relative concentration of transporter protein),NET [1]; [7],<0.01 fmol/mm^2
same,% BL-competitor,"NET [1]; human cortex, competitor 1 μM",71.9 ± 7.9 %
same,fmol (calculated relative concentration of transporter protein),"NET [1]; human cortex, competitor 1 μM",0.86 fmol/mm^2
same,% BL-competitor,NET [1]; [8],97.1 ± 10.3%
same,fmol (calculated relative concentration of transporter protein),NET [1]; [8],<0.01 fmol/mm^2
same,% BL-competitor,NET [1]; [9],67.3 ± 8.2%
same,fmol (calculated relative concentration of transporter protein),NET [1]; [9],<0.01 fmol/mm^2
same,% BL-competitor,NET [1]; [10],97.8 ± 14.6%
same,fmol (calculated relative concentration of transporter protein),NET [1]; [10],0.11 fmol/mm^2
same,% BL-competitor,NET [1]; [11],77.4 ± 14.5%
same,fmol (calculated relative concentration of transporter protein),NET [1]; [11],0.02 fmol/mm^2
same,% BL-competitor,NET [1]; [12],77.6 ± 9.8%
same,fmol (calculated relative concentration of transporter protein),NET [1]; [12],0.47 fmol/mm^2
same,% BL-competitor,NET [1]; [13],68.36 ± 2.11%
same,fmol (calculated relative concentration of transporter protein),NET [1]; [13],0.71 fmol/mm^2
same,% BL-competitor,NET [2]; competitor 100 nM,99.00 ± 0.07%
same,fmol (calculated relative concentration of transporter protein),NET [2]; competitor 100 nM,<0.01 fmol/mm^2
same,% BL-competitor,NET [2]; competitor 1 μM,88.8 ± 11.2%
same,fmol (calculated relative concentration of transporter protein),NET [2]; competitor 1 μM,<0.01 fmol/mm^2
same,% BL-competitor,NET [3]; competitor 100 nM,102.6 ± 14.5%
same,% BL-competitor,NET [3]; competitor 1 μM,107.6 ± 17.7%
same,logD,"[4]; HPLC method, phosphate buffer pH 7.4",2.73
same,displacement of [11C]Me@HAPTHI,[5],concentration-dependent displacement
"NC[C@@H](O)CCN1c2ccccc2N(c2ccccc2)S1(=O)=O [HAPTHI, (S)-1-(4-amino-3-hydroxybutyl)-3-phenyl-1,3-dihydrobenzo[c][1,2, 5]thiadiazole 2,2-dioxide]",Kd,human DAT membranes,> 10 µM
same,Kd,human SERT membranes,10.3 µM
same,chromatographic logD,[4],2.3 ± 0.01
same,Kd,human NET membranes,0.0242 ± 0.0109 µM
"CNC[C@@H](O)CCN1c2ccccc2N(c2ccccc2)S1(=O)=O [Me@HAPTHI, (S)-1-(3-hydroxy-4-(methylamino)butyl)-3-phenyl-1,3-dihydrobenzo[c][1,2, 5]thiadiazole 2,2-dioxide]",chromatographic logD,[4],2.27 ± 0.01
"[11CH3]NC[C@@H](O)CCN1c2ccccc2N(c2ccccc2)S1(=O)=O [[^11C]Me@HAPTHI, (S)-1-(3-hydroxy-4-([^11C]methylamino)butyl)-3-phenyl-1,3-dihydrobenzo[c][1,2, 5]thiadiazole 2,2-dioxide]",unspecific filter retention,[6],51.26 ± 0.78%
